Here are results for 24 compounds from ChEMBL document CHEMBL2021924, “Identification of novel telomeric G-quadruplex-targeting chemical scaffolds through screening of three NCI libraries” (Bioorg Med Chem Lett, 2012).

What all share (type): nucleic-acid assay
The subject of test [1] is Nucleic Acid. The experiment in a line: Stabilization of DNA duplex hairpin structure assessed as change in melting temperature at 1 uM by FRET assay.
Test [2] concerns Nucleic Acid. The test can be described thus: Stabilization of human G-quadruplex F21T assessed as change in melting temperature at 1 uM by FRET assay.
For test [3], the system named is Nucleic Acid. The experiment in a line: Stabilization of human G-quadruplex F21T assessed as change in melting temperature at 5 uM by FRET assay.

Take `CN(C)c1ccc(C=c2c3ccccc3n3c2cc(-c2ccc(Cl)cc2)[n+]3C)cc1`: the ΔTm worked out at 0.3 °C in test [1], 1.3 °C in test [2] and 22.1 °C in test [3].

Consider `Cc1cc(N)c2ccccc2[n+]1CCCCCCCCCC[n+]1c(C)cc(N)c2ccccc21`, for which the values for the thermal shift (ΔTm) in test [1], in test [2] and in test [3] were 1.3 °C, 19.5 °C and 40.7 °C, respectively.

`Cc1cc(N)c2cc(NC(=O)/C=C/c3ccccc3Cl)ccc2n1`: the ΔTm was 0.4 °C in test [1], 7.3 °C in test [2] and 19.7 °C in test [3].

Take `CN(C)c1ccc(Nc2c3ccc(NC(=O)CCN4CCCC4)cc3nc3cc(NC(=O)CCN4CCCC4)ccc23)cc1`: the ΔTm was found to be 8.8 °C in test [1] and 29.5 °C in test [2].

As to `COc1ccc2c(NCCCCCCNc3c4ccccc4nc4cc(OC)ccc34)c3ccccc3nc2c1`, the results for the ΔTm in test [1], in test [2] and in test [3] were 3.9 °C, 30.5 °C and 39 °C, respectively.

Take `CC(=O)N(C)c1ccc(Nc2cc(C)nc3ccc4nc[nH]c4c23)cc1`: the ΔTm in test [1] was 0.4 °C; in test [2] it was 15.8 °C; in test [3] it was 31.1 °C.

For `O=C(Nc1ccc(C2=NCCCN2)cc1)Nc1ccc(C2=NCCCN2)cc1`, the figures for the ΔTm in test [1], in test [2] and in test [3] were 2.9 °C, 20.1 °C and 21.5 °C, respectively.

Regarding `CCN(CC)CCNc1ccc2nc(C)n3c4ccc(OC)cc4c(=O)c1c23`, the ΔTm in test [1] was determined as 2.6 °C; in test [2] it was 4.2 °C; in test [3], 15.2 °C.

As to `CCN(CC)Cc1cc2[nH]c3c4ccc(Cl)cc4ncc3c2cc1OC`, the ΔTm in test [1] came to 0.7 °C; in test [2], 15 °C; in test [3], 25.9 °C.

Regarding `COc1ccc2cc3[n+](cc2c1OC)CCc1cc2c(cc1-3)OCO2`, the results for the ΔTm in test [1], in test [2] and in test [3] were 0.3 °C, 9.7 °C and 23.8 °C, respectively.

`c1ccc2c(NCCCCCCCCNc3c4ccccc4nc4ccccc34)c3ccccc3nc2c1`: the ΔTm in test [1] turned out to be 0.7 °C; in test [2], 3 °C; in test [3], 38.5 °C.

In the case of `COc1cc2cc3c4cc(OC)c(OC)cc4cc[n+]3c(C)c2cc1OC.O=C([O-])CS(=O)(=O)O`, the ΔTm in test [1] came to 3.2 °C; in test [2], 29.9 °C; in test [3], 42.6 °C.

Take `Cc1ccc(NC(=O)Nc2nc3ccccc3s2)cc1NC(=O)Nc1nc2ccccc2s1`: the ΔTm was 0.4 °C in test [1], 22.7 °C in test [2] and 26.6 °C in test [3].

For the compound `Cc1cc(NCCCCCCCNc2cc(C)nc3cc(N)ccc23)c2ccc(N)cc2n1`, the shift in melting temperature (ΔTm) in test [1] came out at 0.6 °C; in test [2], 11.8 °C; in test [3], 38.7 °C.

For the compound `O=C(Nc1ccc(C2=NCCN2)cc1)c1ccc(C(=O)Nc2ccc(C3=NCCN3)cc2)c(Cl)c1`, the ΔTm in test [1] was found to be 1.4 °C; in test [2], 8.4 °C; in test [3] it was 20.4 °C.

Regarding `COc1cc2c3c(n(C)c(=O)c2cc1OC)-c1cc2c(cc1C3=O)OCO2`, the values for the ΔTm in test [1], in test [2] and in test [3] were 0.3 °C, 8.1 °C and 18.8 °C, respectively.

For `O=C(Nc1ccc(C2=NCCN2)cc1)c1ccc(Cl)c(C(=O)Nc2ccc(C3=NCCN3)cc2)c1`, the ΔTm in test [1] was 1.4 °C; in test [2], 24.2 °C; in test [3], 37.3 °C.

Consider `CCN1C=C/C(=C\C=C\c2cc[n+](CC)c3ccccc23)c2ccccc21`, for which the values for the ΔTm in test [1], in test [2] and in test [3] were 0.6 °C, 11.2 °C and 36.4 °C, respectively.

Turning to `Cc1cc2nc3ccc(N(C)C)cc3[s+]c2cc1N`, the ΔTm in test [1] came to 1.8 °C; in test [2], 20.3 °C; in test [3], 35.1 °C.

With `Cc1ccc2c(ccc(/C=C/c3ccc(O)c4ncccc34)[n+]2C)c1`, the ΔTm came out at 0 °C in test [1], 12.4 °C in test [2] and 22.9 °C in test [3].

Turning to `COc1ccc2c(=O)oc3c(OC)cc(CCN(C)C)c4c(=O)oc1c2c34`, the figures for the ΔTm in test [1], in test [2] and in test [3] were 1.7 °C, 13.2 °C and 24 °C, respectively.

In the case of `COc1cc(Cc2nccc3cc(OC)c(OC)cc23)c(C(C)=O)cc1OC`, the values for the ΔTm in test [1], in test [2] and in test [3] were 0.4 °C, 8 °C and 36.7 °C, respectively.

On to `O=C(Nc1ccc(C2=NCCN2)cc1)c1ccc(C(=O)Nc2ccc(C3=NCCN3)cc2)c([N+](=O)[O-])c1`, for which the results for the ΔTm in test [1], in test [2] and in test [3] were 3.4 °C, 13.3 °C and 33.2 °C, respectively.

As to `N=C(N)c1ccc(/C=C/c2ccc(C(=N)N)cc2O)cc1`, the ΔTm in test [1] was 3.2 °C; in test [2], 17.3 °C; in test [3], 26.3 °C.

By ΔTm is commonly meant the shift of the melting midpoint relative to a reference.
